Assay results: patent US20260226034A1 (The Rockefeller University, priority 2023, published 2026)

Each compound was assayed against NSP14 (Severe acute respiratory syndrome coronavirus 2, UniProt P0DTD1) (assay: NSP14 MTase inhibition assay at 37° C. (MTase-Glo SAH detection)). Conditions: 0.3 nM NSP14, 2.5 μM SAM, 2.5 μM GpppA RNA, 45 min at 37° C.; read-out: Nsp14 Mtase Inh. IC50.
Type: biochemical, SARS-CoV-2
Experimental: NSP14 MTase assay at 37° C. (0.3 nM NSP14 as final enzyme concentration)
The NSP14 MTase assay at 37° C. is carried out in 384-well flat bottom polystyrene microplates (Greiner, 781075). Per well, 10 μl of 1×NSP14 reaction buffer (50 mM Tris-HCl, pH 7.5, 6 mM KCl, 1.25 mM MgCl2, 1 mM DTT, and 0.01% Tween-20) are dispensed in columns 1-23 using a Thermo Multidrop Combi dispenser (Thermo Scientific). 0.1 μl of serially diluted compounds in DMSO are dispensed into columns 1-22 of the assay microplates with a Janus 384 MDT NanoHead (PerkinElmer). In wells of column 23, which serve as negative controls, no compounds are added.
The NSP14 reaction is started by adding 4 μl of a 4× substrate solution containing S-adenosyl methionine (SAM, 10 μM) and GpppA RNA (10 μM) prepared in 1×NSP14 reaction buffer. Any addition of reagents is followed by a 30 second centrifugation at 500×g to ensure that all liquid was collected at the bottom of the well. The final concentrations of NSP14, SAM, and GpppA RNA are 0.3 nM, 2.5 μM, and 2.5 μM, respectively. The final reaction volume is 16 μl. Plates are sealed and incubated for 45 min at 37° C.
For SAH detection, 1 μl 5× MTase-Glo™ Reagent (Promega) is added to each well, plates are mixed for 1-2 minutes and incubated at room temperature for 30 minutes. 5 μl of room-temperature MTase-Glo™ Detection Solution (Promega) is added to each well, plates are mixed for 1-2 minutes and incubated at room temperature for 30 minutes. Luminescence signals of each well are recorded in relative light units (RLUs) using a Biotek Synergy Neo plate reader (BioTek, Winooski, VT). The SAH production is normalized against the positive control (PK, column 24) and negative control (NK, column 23) as follows: normalized % inhibition=100×(RLUsample-RLUaverageNK)/(RLUaveragePK-RLUaverageNK).

Which IC50 does the source give for `COCC1(NC(=O)c2cc(S(=O)(=O)c3ccc4[nH]ncc4c3)c(C)n2C)CCN(c2ncc(F)cn2)C1` (single isomer, unassigned) [A.114, 4-((1H-indazol-5-yl)sulfonyl)-N-(1-(5-fluoropyrimidin-2-yl)-3-(methoxymethyl)pyrrolidin-3-yl)-1,5-dimethyl-1H-pyrrole-2-carboxamide] here?
The IC50 was 0.87 nM.

Which IC50 does the source give for `COCC1(NC(=O)c2cc(S(=O)(=O)c3ccc4[nH]ncc4c3)c(C)n2C)CCN(c2ncc(F)cn2)C1` (single isomer, unassigned) [A.115, 4-((1H-indazol-5-yl)sulfonyl)-N-(1-(5-fluoropyrimidin-2-yl)-3-(methoxymethyl)pyrrolidin-3-yl)-1,5-dimethyl-1H-pyrrole-2-carboxamide] here?
Its IC50 is 37 nM.

How did the IC50 turn out when `Cc1c(S(=O)(=O)c2ccc3[nH]ncc3c2)cc(C(=O)NC2(CO)CCN(c3ncc(F)cn3)C2)n1C` (single isomer, unassigned) [A.116, 4-((1H-indazol-5-yl)sulfonyl)-N-(1-(5-fluoropyrimidin-2-yl)-3-(hydroxymethyl)pyrrolidin-3-yl)-1,5-dimethyl-1H-pyrrole-2-carboxamide] was run?
The IC50 was 44 nM.

With `Cc1c(S(=O)(=O)c2ccc3[nH]ncc3c2)cc(C(=O)NC2(CO)CCN(c3ncc(F)cn3)C2)n1C` (single isomer, unassigned) [A.117, 4-((1H-indazol-5-yl)sulfonyl)-N-(1-(5-fluoropyrimidin-2-yl)-3-(hydroxymethyl)pyrrolidin-3-yl)-1,5-dimethyl-1H-pyrrole-2-carboxamide] as the compound, how does the IC50 read?
Its IC50 is 2.8 nM.

How did the IC50 turn out when `Cc1cc(S(=O)(=O)c2cc(C(=O)NCc3c(F)ccc4occc34)n(C)c2C)cc2cn[nH]c12` [A.1, N-[(5-fluorobenzofuran-4-yl)methyl]-1,5-dimethyl-4-[(7-methyl-1H-indazol-5-yl)sulfonyl]pyrrole-2-carboxamide] was run?
Its IC50 is 0.2 nM.

How did the IC50 turn out when `Cc1c(S(=O)(=O)c2ccc3[nH]ncc3c2)cc(C(=O)NCc2c(F)ccc3occc23)n1C` [A.2] was run?
The IC50 was 0.32 nM.

How did the IC50 turn out when `Cc1c(S(=O)(=O)c2ccc3[nH]ncc3c2)cc(C(=O)NCc2cccc3cnn(C)c23)n1C` [A.3] was run?
The IC50 was 0.35 nM.

Which IC50 does the source give for `Cc1c(S(=O)(=O)c2ccc3c(cnn3C)c2)cc(C(=O)NCc2c(F)ccc3ncn(C4CC4)c23)n1C` [A.4, N-[(3-cyclopropyl-5-fluoro-benzimidazol-4-yl)methyl]-1,5-dimethyl-4-(1-methylindazol-5-yl)sulfonyl-pyrrole-2-carboxamide] here?
Its IC50 is 0.5 nM.

How did the IC50 turn out when `Cc1c(S(=O)(=O)c2ccc3[nH]ncc3c2)cc(C(=O)NCc2cccc3cnn(C4CC4)c23)n1C` [A.5] was run?
Its IC50 is 1.5 nM.

How did the IC50 turn out when `Cc1c(S(=O)(=O)c2cccc(C#N)c2)cc(C(=O)NCc2cccc3cnn(C)c23)n1C` [A.6, 4-(3-cyanophenyl)sulfonyl-1,5-dimethyl-N-[(1-methylindazol-7-yl)methyl]pyrrole-2-carboxamide] was run?
The IC50 was 1.7 nM.

With `Cc1c(S(=O)(=O)c2ccccc2)cc(C(=O)NCc2c(F)ccc3cnn(C)c23)n1C` [A.7, N-((6-fluoro-1-methyl-1H-indazol-7-yl)methyl)-1,5-dimethyl-4-(phenylsulfonyl)-1H-pyrrole-2-carboxamide] as the compound, how does the IC50 read?
Its IC50 is 1.7 nM.

`Cc1c(S(=O)(=O)c2ccc3occc3c2)cc(C(=O)NCc2cccc3cnn(C)c23)n1C` [A.8] was tested. Which IC50 did it give?
The IC50 was 1.8 nM.

Which IC50 does the source give for `Cc1c(S(=O)(=O)c2cccc(Cl)c2)cc(C(=O)NCc2cccc3cnn(C)c23)n1C` [A.9] here?
The IC50 was 2.1 nM.

Which IC50 does the source give for `Cc1c(S(=O)(=O)c2ccccc2)cc(C(=O)NCc2c(F)ccc3cnn(C4CC4)c23)n1C` [A.10] here?
The IC50 was 4.9 nM.

`Cc1c(S(=O)(=O)c2ccc(Cl)cc2)cc(C(=O)NCc2cccc3cnn(C)c23)n1C` [A.11] was tested. Which IC50 did it give?
Its IC50 is 5.3 nM.

For `Cc1c(S(=O)(=O)c2ccc3c(cnn3C)c2)cc(C(=O)NCc2cccc3cnn(C)c23)n1C` [A.12], which IC50 is on record?
The IC50 was 5.6 nM.

`Cc1c(S(=O)(=O)c2ccc3[nH]ncc3c2)cc(C(=O)NCc2cccn3nccc23)n1C` [A.13] was tested. Which IC50 did it give?
The IC50 was 7.2 nM.

For `Cc1c(S(=O)(=O)c2ccc3occc3c2)cc(C(=O)NCc2c(F)ccc3occc23)n1C` [A.14], which IC50 is on record?
Its IC50 is 7.7 nM.

How did the IC50 turn out when `Cc1c(S(=O)(=O)c2ccc(=O)n(C)c2)cc(C(=O)NCc2cccc3cnn(C)c23)n1C` [A.15] was run?
The IC50 was 13.4 nM.

Which IC50 does the source give for `Cc1c(S(=O)(=O)c2ccccc2)cc(C(=O)NCc2cccc3cnn(C)c23)n1C` [A.16] here?
The IC50 was 15 nM.

`Cc1c(S(=O)(=O)c2ccc(F)cc2)cc(C(=O)NCc2cccc3cnn(C)c23)n1C` [A.17] was tested. Which IC50 did it give?
The IC50 was 16 nM.

With `Cc1c(S(=O)(=O)c2ccc3c(cnn3C)c2)cc(C(=O)NCc2c(F)ccc3cnn(C)c23)n1C` [A.18] as the compound, how does the IC50 read?
The IC50 was 18 nM.

`Cc1c(S(=O)(=O)c2ccc3c(cnn3C)c2)cc(C(=O)NCc2c(F)ccc3occc23)n1C` [A.19] was tested. Which IC50 did it give?
The IC50 was 21 nM.

`Cc1c(S(=O)(=O)c2ccccc2)cc(C(=O)NCc2c(F)ccc3occc23)n1C` [A.20] was tested. Which IC50 did it give?
The IC50 was 22 nM.

`Cc1c(S(=O)(=O)c2ccc(C(N)=O)cc2)cc(C(=O)NCc2cccc3cnn(C)c23)n1C` [A.21] was tested. Which IC50 did it give?
The IC50 was 53 nM.

For `Cc1c(S(=O)(=O)c2ccccc2)cc(C(=O)NCc2cccnc2N2CCCC2)n1C` [A.22], which IC50 is on record?
Its IC50 is 67 nM.

How did the IC50 turn out when `COc1ccccc1CNC(=O)c1cc(S(=O)(=O)c2ccc3c(cnn3C)c2)c(C)n1C` [A.23] was run?
The IC50 was 68 nM.

How did the IC50 turn out when `Cc1c(S(=O)(=O)c2ccc(C#N)cc2)cc(C(=O)NCc2cccc3cnn(C)c23)n1C` [A.24] was run?
The IC50 was 89 nM.

How did the IC50 turn out when `Cc1c(S(=O)(=O)c2ccncc2)cc(C(=O)NCc2cccc3cnn(C)c23)n1C` [A.27] was run?
Its IC50 is 102 nM.

How did the IC50 turn out when `COc1ccc(S(=O)(=O)c2cc(C(=O)NCc3cccc4cnn(C)c34)n(C)c2C)cn1` [A.28] was run?
Its IC50 is 119 nM.

For `Cc1c(S(=O)(=O)c2cnc3c(cnn3C)c2)cc(C(=O)NCc2cccc3cnn(C)c23)n1C` [A.29], which IC50 is on record?
Its IC50 is 160 nM.

For `CC(=O)Nc1ccc(S(=O)(=O)c2cc(C(=O)NCc3c(F)ccc4occc34)n(C)c2C)cc1` [A.30], which IC50 is on record?
Its IC50 is 243 nM.

Same assay, conditions: 37° C., 0.3 nM NSP14, 2.5 μM SAM, 2.5 μM GpppA RNA; read-out: Nsp14 Mtase Inh. IC50

`Cc1c(S(=O)(=O)c2ccc3[nH]ncc3c2)cc(C(=O)NC2CCc3c(F)ccc(F)c32)n1C` (racemic) [B.70] was tested. Which IC50 did it give?
The IC50 was 0.95 nM.

For `Cc1c(S(=O)(=O)c2ccc3[nH]ncc3c2)cc(C(=O)NC2CCc3cc(C(F)(F)F)ccc32)n1C` (racemic) [B.71], which IC50 is on record?
The IC50 was 36 nM.

For `Cc1c(S(=O)(=O)c2ccc3[nH]ncc3c2)cc(C(=O)NC2CCc3ccc(C(F)(F)F)cc32)n1C` (racemic) [B.72], which IC50 is on record?
Its IC50 is 33 nM.

With `Cc1c(S(=O)(=O)c2ccc3[nH]ncc3c2)cc(C(=O)NC2CCc3cc(F)c(F)cc32)n1C` (racemic) [B.92] as the compound, how does the IC50 read?
Its IC50 is 27 nM.

How did the IC50 turn out when `Cc1c(S(=O)(=O)c2ccc3[nH]ncc3c2)cc(C(=O)NC2CCc3cccc(F)c32)n1C` (racemic) [B.110] was run?
Its IC50 is 0.38 nM.

`Cc1cc(S(=O)(=O)c2cc(C(=O)NCc3c(F)ccnc3N3CCC(C)(C(=O)O)C3)n(C)c2C)cc2cnn(C)c12` (racemic) [B.127] was tested. Which IC50 did it give?
Its IC50 is 0.58 nM.

`CN=S(=O)(NC(=O)c1cc(S(=O)(=O)c2ccc3[nH]ncc3c2)c(C)n1C)c1ccccc1` (racemic) [B.135, 4-(1H-indazol-5-ylsulfonyl)-1,5-dimethyl-N—(N-methyl-S-phenyl-sulfonimidoyl)pyrrole-2-carboxamide] was tested. Which IC50 did it give?
Its IC50 is 19 nM.

Which IC50 does the source give for `Cc1c(S(=O)(=O)c2ccc3[nH]ncc3c2)cc(C(=O)NC(C)c2ccnn2C)n1C` (racemic) [B.172] here?
Its IC50 is 24 nM.

`Cc1c(S(=O)(=O)c2ccc3[nH]nc(F)c3c2)cc(C(=O)NC2CCc3c2ccc(=O)n3C)n1C` (racemic) [B.178] was tested. Which IC50 did it give?
The IC50 was 21 nM.

For `Cc1c(S(=O)(=O)c2ccc3[nH]ncc3c2)cc(C(=O)N[C@H](C)c2c(F)cccc2F)n1C` (single isomer, unassigned) [B.64], which IC50 is on record?
The IC50 was 4 nM.

For `Cc1c(S(=O)(=O)c2ccc3[nH]ncc3c2)cc(C(=O)N[C@H](C)c2c(F)cccc2F)n1C` (single isomer, unassigned) [B.65], which IC50 is on record?
Its IC50 is 65 nM.

How did the IC50 turn out when `Cc1c(S(=O)(=O)c2cc(F)c3[nH]ncc3c2)cc(C(=O)N[C@@H](C)c2cccc3cnn(C4CC4)c23)n1C` (single isomer, unassigned) [B.87] was run?
The IC50 was 0.82 nM.

For `Cc1c(S(=O)(=O)c2cc(F)c3[nH]ncc3c2)cc(C(=O)N[C@@H](C)c2cccc3cnn(C4CC4)c23)n1C` (single isomer, unassigned) [B.88], which IC50 is on record?
Its IC50 is 22 nM.

Which IC50 does the source give for `Cc1c(S(=O)(=O)c2ccc3[nH]ncc3c2)cc(C(=O)N[C@H]2CCc3c(F)ccc(F)c32)n1C` (single isomer, unassigned) [B.139] here?
The IC50 was 1.3 nM.

Which IC50 does the source give for `Cc1c(S(=O)(=O)c2ccc3[nH]ncc3c2)cc(C(=O)N[C@H]2CCc3c(F)ccc(F)c32)n1C` (single isomer, unassigned) [B.140] here?
Its IC50 is 0.31 nM.

Which IC50 does the source give for `Cc1c(S(=O)(=O)c2ccc3[nH]ncc3c2)cc(C(=O)N[C@H]2Cc3ccccc32)n1C` (single isomer, unassigned) [B.170] here?
Its IC50 is 2.5 nM.

How did the IC50 turn out when `Cc1c(S(=O)(=O)c2ccc3[nH]ncc3c2)cc(C(=O)N[C@H]2Cc3ccccc32)n1C` (single isomer, unassigned) [B.171] was run?
Its IC50 is 2.7 nM.
